# Assay results as given in patent US8980542B2, “Arginine-containing compositions and methods for treating red blood cells” (Viacell, LLC, priority 2010, dated 2015).
# Key:
# [1] = Solubility of nucleoside in the composition; format: physicochemical; settings: equimolecular solution with L-arginine, room temperature
# stored RBCs = assay: 2,3-DPG level of stored RBCs after incubation with storage and/or rejuvenating composition (Roche 2,3-DPG kit); format: cell-based; settings: 60 minutes at 37° C.
# Experimental: A storage and/or rejuvenating composition that includes D-ribose, inosine, sodium pyruvate, and inorganic phosphate, all at a 300 mM concentration as a slurry was prepared. When used to store and/or rejuvenate RBCs, the slurry is diluted 30-fold to a final concentration of 10 mM to form a solution. […] In a study, RBCs were collected and stored for an average of 21 days at 4° C. according to standard blood banking practice. Various RBC storage and/or rejuvenating compositions were added to the 21-day old stored RBCs and held at 37° C. for one to four hours before being tested for 2,3-DPG concentrations. […] A normal 2,3-DPG concentration of RBC immediately upon harvest is 4.0 μmol/ml. […] An increase to 1.0 μmol/ml is considered a significant improvement.
# Experimental protocols were designed to find methods to increase the solubility of inosine. […] A storage and/or rejuvenating composition including 300 mM each of inosine, L-arginine, sodium pyruvate, D-ribose, and inorganic phosphate was diluted 30-fold into 21-day old stored RBCs. One set of stored blood samples was incubated for 60 minutes at room temperature and another was incubated for 60 minutes at 37° C.
smiles,measurement,setting,value
OC[C@H]1O[C@@H](n2cnc3c(O)ncnc32)[C@H](O)[C@@H]1O [inosine],concentration at which inosine remained in solution,[1],above 50 mM
Nc1nc2c(ncn2[C@@H]2O[C@H](CO)[C@@H](O)[C@H]2O)c(=O)[nH]1 [Guanosine],Rejuvenation,"stored RBCs; guanosine with 10 mM each inorganic phosphate and D-ribose, no sodium pyruvate",observed
O=C[C@H](O)[C@H](O)[C@H](O)COP(=O)(O)O [ribose-5-phosphate],Rejuvenation,"stored RBCs; inosine replaced by varying concentrations of the substance in composition with 10 mM each D-ribose, sodium pyruvate, inorganic phosphate",not observed
